Test results from PubChem BioAssay AID1745844 (Carcinogenic Potency Database (CPDB), 2022).

Tested on: rodent lifetime carcinogenesis bioassay, tumor incidence TD50
Assay: chronic cancer bioassays in animals – CPDB, compiled studies (AID 1745844)
Conditions: inhaled

C=CCl
TD50 (hamster, strain Syrian Golden, females, site: all sites, lesion: hemangiosarcoma, dosed 26 weeks, study length 104 weeks): 78.6 mg/kg/day | TD50 (hamster, strain Syrian Golden, females, site: all sites, lesion: hemangiosarcoma, dosed 52 weeks, study length 104 weeks): 314 mg/kg/day | TD50 (hamster, strain Syrian Golden, females, site: all sites, lesion: hemangiosarcoma, dosed 78 weeks, study length 104 weeks): 1920 mg/kg/day | TD50 (hamster, strain Syrian Golden, females, site: mammary gland, lesion: carcinoma, dosed 26 weeks, study length 104 weeks): 32.3 mg/kg/day | TD50 (hamster, strain Syrian Golden, females, site: mammary gland, lesion: carcinoma, dosed 52 weeks, study length 104 weeks): 27.7 mg/kg/day | TD50 (hamster, strain Syrian Golden, females, site: mammary gland, lesion: carcinoma, dosed 78 weeks, study length 104 weeks): 61 mg/kg/day | TD50 (hamster, strain Syrian Golden, females, site: skin, lesion: carcinoma, dosed 52 weeks, study length 104 weeks): 121 mg/kg/day | TD50 (hamster, strain Syrian Golden, females, site: stomach, lesion: adenoma, dosed 26 weeks, study length 104 weeks): 47.2 mg/kg/day | TD50 (hamster, strain Syrian Golden, females, site: stomach, lesion: adenoma, dosed 52 weeks, study length 104 weeks): 1010 mg/kg/day | TD50 (hamster, strain Syrian Golden, females, site: stomach, lesion: adenoma, dosed 78 weeks, study length 104 weeks): 205 mg/kg/day | TD50 (hamster, strain Syrian Golden, males, site: acoustic duct, lesion: epithelioma, dosed 30 weeks, study length 101 weeks): 855 mg/kg/day | TD50 (hamster, strain Syrian Golden, males, site: all sites, lesion: leukemia, dosed 30 weeks, study length 101 weeks): 25800 mg/kg/day | TD50 (hamster, strain Syrian Golden, males, site: extrahepatic tissue, lesion: angioma, dosed 30 weeks, study length 101 weeks): 9800 mg/kg/day | TD50 (hamster, strain Syrian Golden, males, site: forestomach, lesion: epithelioma, dosed 30 weeks, study length 101 weeks): 55 mg/kg/day | TD50 (hamster, strain Syrian Golden, males, site: liver, lesion: angioma, dosed 30 weeks, study length 101 weeks): 2380 mg/kg/day | TD50 (hamster, strain Syrian Golden, males, site: liver, lesion: angiosarcoma, dosed 30 weeks, study length 101 weeks): 91800 mg/kg/day | TD50 (hamster, strain Syrian Golden, males, site: liver, lesion: hepatoma, dosed 30 weeks, study length 101 weeks): 1730 mg/kg/day | TD50 (hamster, strain Syrian Golden, males, site: skin, lesion: epithelioma, dosed 30 weeks, study length 101 weeks): 9350 mg/kg/day | TD50 (hamster, strain Syrian Golden, males, site: skin, lesion: melanoma, dosed 30 weeks, study length 101 weeks): 7630 mg/kg/day | TD50 (mouse, strain Charles River CD1, females, site: liver, lesion: hemangiosarcoma, dosed 26 weeks, study length 58 weeks): 91.9 mg/kg/day | TD50 (mouse, strain Charles River CD1, females, site: lung, lesion: alveolar/bronchiolar tumor, dosed 26 weeks, study length 58 weeks): 142 mg/kg/day | TD50 (mouse, strain Charles River CD1, females, site: mammary gland, lesion: malignant tumor, dosed 26 weeks, study length 58 weeks): 249 mg/kg/day | TD50 (mouse, strain Charles River CD1, males, site: liver, lesion: hemangiosarcoma, dosed 26 weeks, study length 78 weeks): 32 mg/kg/day | TD50 (mouse, strain Charles River CD1, males, site: lung, lesion: alveolar/bronchiolar tumor, dosed 26 weeks, study length 78 weeks): 88.7 mg/kg/day | TD50 (mouse, strain Swiss, females, site: all sites, lesion: hemangiosarcoma, dosed 26 weeks, study length 104 weeks): 12.5 mg/kg/day | TD50 (mouse, strain Swiss, females, site: all sites, lesion: hemangiosarcoma, dosed 52 weeks, study length 104 weeks): 13.8 mg/kg/day | TD50 (mouse, strain Swiss, females, site: all sites, lesion: hemangiosarcoma, dosed 78 weeks, study length 104 weeks): 36.1 mg/kg/day | TD50 (mouse, strain Swiss, females, site: any site (literature study), lesion: several types, types named in the paper, dosed 30 weeks, study length 77 weeks): 600 mg/kg/day | TD50 (mouse, strain Swiss, females, site: extrahepatic tissue, lesion: angioma, dosed 30 weeks, study length 77 weeks): 70900 mg/kg/day | TD50 (mouse, strain Swiss, females, site: extrahepatic tissue, lesion: angiosarcoma, dosed 30 weeks, study length 77 weeks): 736 mg/kg/day | TD50 (mouse, strain Swiss, females, site: forestomach, lesion: epithelioma, dosed 30 weeks, study length 77 weeks): 9820 mg/kg/day | TD50 (mouse, strain Swiss, females, site: liver, lesion: angioma, dosed 30 weeks, study length 77 weeks): 196 mg/kg/day | TD50 (mouse, strain Swiss, females, site: liver, lesion: angiosarcoma, dosed 30 weeks, study length 77 weeks): 98.8 mg/kg/day | TD50 (mouse, strain Swiss, females, site: liver, lesion: hepatoma, dosed 30 weeks, study length 77 weeks): 12200 mg/kg/day | TD50 (mouse, strain Swiss, females, site: lung, lesion: adenoma, dosed 30 weeks, study length 77 weeks): 402 mg/kg/day | TD50 (mouse, strain Swiss, females, site: lung, lesion: carcinoma, dosed 26 weeks, study length 104 weeks): 36.6 mg/kg/day | TD50 (mouse, strain Swiss, females, site: lung, lesion: carcinoma, dosed 52 weeks, study length 104 weeks): 55.5 mg/kg/day | TD50 (mouse, strain Swiss, females, site: lung, lesion: carcinoma, dosed 78 weeks, study length 104 weeks): 143 mg/kg/day | TD50 (mouse, strain Swiss, females, site: mammary gland, lesion: carcinoma, dosed 26 weeks, study length 104 weeks): 10.6 mg/kg/day | TD50 (mouse, strain Swiss, females, site: mammary gland, lesion: carcinoma, dosed 30 weeks, study length 77 weeks): 3750 mg/kg/day | TD50 (mouse, strain Swiss, females, site: mammary gland, lesion: carcinoma, dosed 52 weeks, study length 104 weeks): 22.9 mg/kg/day | TD50 (mouse, strain Swiss, females, site: mammary gland, lesion: carcinoma, dosed 78 weeks, study length 104 weeks): 32.2 mg/kg/day | TD50 (mouse, strain Swiss, females, site: skin, lesion: epithelioma, dosed 30 weeks, study length 77 weeks): 25100 mg/kg/day | TD50 (mouse, strain Swiss, males, site: any site (literature study), lesion: several types, types named in the paper, dosed 30 weeks, study length 77 weeks): 26.1 mg/kg/day | TD50 (mouse, strain Swiss, males, site: extrahepatic tissue, lesion: angioma, dosed 30 weeks, study length 77 weeks): 12300 mg/kg/day | TD50 (mouse, strain Swiss, males, site: extrahepatic tissue, lesion: angiosarcoma, dosed 30 weeks, study length 77 weeks): 8030 mg/kg/day | TD50 (mouse, strain Swiss, males, site: forestomach, lesion: epithelioma, dosed 30 weeks, study length 77 weeks): 5190 mg/kg/day | TD50 (mouse, strain Swiss, males, site: liver, lesion: angioma, dosed 30 weeks, study length 77 weeks): 1080 mg/kg/day | TD50 (mouse, strain Swiss, males, site: liver, lesion: angiosarcoma, dosed 30 weeks, study length 77 weeks): 70.8 mg/kg/day | TD50 (mouse, strain Swiss, males, site: liver, lesion: hepatoma, dosed 30 weeks, study length 77 weeks): 25200 mg/kg/day | TD50 (mouse, strain Swiss, males, site: lung, lesion: adenoma, dosed 30 weeks, study length 77 weeks): 14 mg/kg/day | TD50 (mouse, strain Swiss, males, site: skin, lesion: epithelioma, dosed 30 weeks, study length 77 weeks): 2690 mg/kg/day
